Converted amounts (≈) assume the structure as drawn.
Test system: K562
Assay: Cytotoxicity against human K562 cells
Assay type: functional
Conditions: read-out: LC50 (the source's name)

Work on `CC(=O)O[C@@H](C/C=C(\C)CC/C=C(\C)CC/C=C(\C)CC(=O)CC(C)C)c1ccoc1` yielded a CC50 of 31.6 µg/mL (≈ 73.7 µM).
`C/C(=C\CC/C(C)=C/C[C@H](O)c1ccoc1)CC/C=C(\C)CC(=O)CC(C)C` showed a CC50 of 3 µg/mL (≈ 7.76 µM).
Compound `CC(=O)OC[C@]12CCCC(C)(C)[C@@H]1CC[C@@]1(C)[C@@H]3CC=C4C(=O)O[C@@H](OC(C)=O)[C@@H]4[C@@]3(C)CC[C@@H]12` has a CC50 of 11.2 µg/mL (≈ 23 µM).
In the case of `CC(=O)O[C@@H]1OC=C2[C@@H](OC(C)=O)C[C@@H]3[C@](C)(CC[C@H]4[C@@]3(C)CC[C@H]3C(C)(C)CCC[C@@]34CO)[C@H]21`, the CC50 is reported as 0.02 µg/mL (≈ 0.0409 µM).
`CC(=O)OC[C@]12CCCC(C)(C)[C@@H]1CC[C@@]1(C)[C@@H]3CC=C4C(=O)O[C@@H](O)[C@@H]4[C@@]3(C)CC[C@@H]12` gave a CC50 of 4.9 µg/mL (≈ 11 µM).

Source: ChEMBL document CHEMBL1148931, “New sesterterpenes from the sponge Smenospongia sp” (2004)
